These results are taken from PubChem BioAssay (NCI).

The structures appear in SMILES notation. Values joined by “and” are separate entries in the source; they are usually repeats but may differ in a detail not shown here. Equal values may be shown once.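 The compound was tested at five concentrations on cells cultured in 96-well plates, with a 48-hour exposure period. GI50 is the concentration that inhibits growth by half. TGI: concentration producing complete growth inhibition.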 A value given as a limit tells only on which side of the number the result lay.

Test systems include A549 NSCLC; COLO 205 colon; HCT-15 colon; HL-60(TB) leukemia; HOP-92 NSCLC; IGROV1 ovarian; K-562 leukemia; KM12 colon; SK-MEL-5 melanoma; U251 CNS.
Common to all, as to test: NCI anticancer screen, dose series, 48 h

As for `COc1cnc2c(c1)C(=O)c1c-2n(CCCN2CCCC2)c(=O)c2cc(Cl)ccc12`, the GI50 in the assay with A549 NSCLC was 0.605 µM; in the assay on COLO 205 colon, 0.161 µM; in the assay with HCT-15 colon, 1.73 µM; with HL-60(TB) leukemia, 6.23 µM; with HOP-92 NSCLC, 2.2 µM; in the assay with IGROV1 ovarian, 2.47 µM. Moreover, the GI50 is 0.792 µM in the assay with K-562 leukemia, 2.11 µM in the assay on KM12 colon, 2.54 µM with SK-MEL-5 melanoma and 0.0383 µM in the assay on U251 CNS. The TGI in the assay on A549 NSCLC came to 10.2 µM; with COLO 205 colon, 8.22 µM; with HCT-15 colon, 10.3 µM; with HL-60(TB) leukemia, 15.2 µM; in the assay with HOP-92 NSCLC it was 12.1 µM; in the assay on IGROV1 ovarian, 12.5 µM. The TGI with K-562 leukemia came out at 11.4 µM; in the assay on KM12 colon, 10.3 µM; in the assay with SK-MEL-5 melanoma, 9.48 µM; in the assay on U251 CNS it was 7.96 µM.

`CCOC(=O)c1c(C)n(Cc2ccc(Cl)cc2Cl)c2c1cc1oc(=O)c(=O)n3c(Cc4ccccc4)nc2c13`: the GI50 in the assay on A549 NSCLC is 3.64 µM; in the assay with COLO 205 colon it was 4.65 µM; in the assay with HCT-15 colon, 3.92 µM; in the assay on HL-60(TB) leukemia it was 2.09 µM; in the assay with HOP-92 NSCLC, 1.56 µM; in the assay with IGROV1 ovarian, 2.11 µM. The GI50 is 3.13 µM with K-562 leukemia, 1.63 µM in the assay on KM12 colon, 1.97 µM in the assay on SK-MEL-5 melanoma and 2.45 µM in the assay with U251 CNS. Also, the TGI in the assay on A549 NSCLC came to 13.5 µM; in the assay with COLO 205 colon, 25.3 µM; in the assay on HCT-15 colon, 14.8 µM; in the assay on HL-60(TB) leukemia, 6.09 µM; in the assay with HOP-92 NSCLC, 3.81 µM; in the assay on IGROV1 ovarian, 15.2 µM. Further, the TGI was 7.18 µM in the assay on K-562 leukemia, 3.47 µM in the assay on KM12 colon, 3.54 µM in the assay with SK-MEL-5 melanoma and 6.5 µM with U251 CNS.

As to `Nc1nc(Nc2cccc(F)c2)nc2ccccc12`, the GI50 with A549 NSCLC is 36.9 µM; in the assay on COLO 205 colon, 15.9 µM; with HCT-15 colon, 18.4 µM; in the assay with HL-60(TB) leukemia, 25.5 µM; with HOP-92 NSCLC, 13.8 µM; in the assay with IGROV1 ovarian it was 38.7 µM. The GI50 in the assay on K-562 leukemia was 24.9 µM; in the assay on KM12 colon, 18.1 µM; with SK-MEL-5 melanoma, 14.5 µM; with U251 CNS, 16.8 µM. Moreover, the TGI was more than 100 µM with A549 NSCLC; 34 µM in the assay with COLO 205 colon; 47 µM in the assay with HCT-15 colon; 68.4 µM in the assay with HL-60(TB) leukemia; 38.5 µM in the assay on HOP-92 NSCLC; more than 100 µM with IGROV1 ovarian. Further, the TGI is more than 100 µM with K-562 leukemia, 42.4 µM in the assay with KM12 colon, 28.3 µM in the assay on SK-MEL-5 melanoma and 34.6 µM in the assay on U251 CNS.

Take `CC1=NN(C(=O)c2ccc(Cl)cc2)C(=O)/C1=C/c1cccc([N+](=O)[O-])c1`: the TGI with A549 NSCLC, with COLO 205 colon, in the assay with HCT-15 colon, in the assay on HL-60(TB) leukemia, in the assay with HOP-92 NSCLC and in the assay on IGROV1 ovarian was more than 100 µM throughout. Also, the TGI with K-562 leukemia, in the assay on KM12 colon, in the assay with SK-MEL-5 melanoma and in the assay on U251 CNS was more than 100 µM in each case.

For the compound `CCc1c2c(nc3cccc(N)c13)-c1cc3c(c(=O)n1C2)COC(=O)[C@]3(O)CC`, the GI50 with A549 NSCLC was 0.00817 µM; in the assay with COLO 205 colon, 0.328 µM; with HL-60(TB) leukemia, 0.00127 µM; with HOP-92 NSCLC it was 0.00331 µM; in the assay with IGROV1 ovarian, 0.137 µM and 0.0298 µM; in the assay on K-562 leukemia it was 0.00244 µM. Further, the GI50 was 0.159 µM in the assay with KM12 colon, 0.00329 µM in the assay with SK-MEL-5 melanoma and less than 0.001 µM with U251 CNS. The TGI in the assay with A549 NSCLC was 0.504 µM; with HCT-15 colon, more than 100 µM; in the assay on HL-60(TB) leukemia, 0.0182 µM; in the assay with IGROV1 ovarian it was 20.8 µM; in the assay with K-562 leukemia it was more than 100 µM; in the assay with U251 CNS, 0.0348 µM and 0.03 µM.

For `CCCCC[C@H]1C/C=C2/C(=O)C(Cl)=C[C@@H]2C/C=C\CCCC(=O)O[C@@H](CCCCC)C/C=C2/C(=O)C(Cl)=C[C@@H]2C/C=C\CCCC(=O)O1`, the GI50 in the assay with A549 NSCLC was 0.426 µM; in the assay on COLO 205 colon, 0.316 µM; with HCT-15 colon it was 0.49 µM; in the assay on HL-60(TB) leukemia, 0.429 µM; with HOP-92 NSCLC, 0.314 µM; in the assay with IGROV1 ovarian it was 0.342 µM. Besides, the GI50 in the assay with K-562 leukemia is 0.314 µM; in the assay on KM12 colon, 0.388 µM; in the assay with SK-MEL-5 melanoma it was 0.325 µM; in the assay with U251 CNS, 0.291 µM. Further, the TGI with A549 NSCLC is 1.15 µM; in the assay on COLO 205 colon it was 0.687 µM; in the assay on HCT-15 colon, 1.85 µM; in the assay with HL-60(TB) leukemia, 1.27 µM; with HOP-92 NSCLC it was 0.687 µM; in the assay with IGROV1 ovarian, 0.958 µM. Moreover, the TGI with K-562 leukemia worked out at 2.29 µM; in the assay on KM12 colon, 0.92 µM; in the assay with SK-MEL-5 melanoma it was 0.659 µM; in the assay on U251 CNS, 0.652 µM.

As to `CN(C)c1ccc(N=Nc2c([O-])ccc3ccccc23)cc1.[C-]#[O+].[C-]#[O+].[Ir]`, the GI50 with A549 NSCLC is more than 46.6 µM; in the assay with COLO 205 colon, 16.5 µM; in the assay on HCT-15 colon, 18.5 µM; in the assay with HL-60(TB) leukemia it was 10.6 µM; in the assay with HOP-92 NSCLC, 2.72 µM; with IGROV1 ovarian, 17.9 µM. For the same compound, the GI50 with K-562 leukemia was 29.4 µM; with KM12 colon, more than 100 µM; in the assay with SK-MEL-5 melanoma it was 24.9 µM; in the assay with U251 CNS, 35.1 µM. The TGI in the assay with A549 NSCLC was more than 69.3 µM; in the assay with COLO 205 colon, 31.6 µM; in the assay on HCT-15 colon, 34.9 µM; with HL-60(TB) leukemia, more than 46.6 µM; in the assay with HOP-92 NSCLC it was 8.64 µM; in the assay on IGROV1 ovarian, 52.7 µM. Moreover, the TGI was more than 100 µM in the assay with K-562 leukemia, more than 100 µM in the assay with KM12 colon, more than 57.7 µM in the assay with SK-MEL-5 melanoma and more than 69.3 µM in the assay with U251 CNS.

Take `CCO[C@@H]1C2C=CC(C2)[C@H]1[N+](=O)[O-]` (stereo not given in full): the TGI in the assay with A549 NSCLC, with COLO 205 colon, in the assay on HCT-15 colon, in the assay on HL-60(TB) leukemia, with HOP-92 NSCLC and with IGROV1 ovarian was more than 100 µM each time. Also, the TGI with K-562 leukemia, with KM12 colon, in the assay on SK-MEL-5 melanoma and in the assay with U251 CNS was more than 100 µM throughout.
